Data from patent publication US20080038276A1, “INHIBITORS OF PLASMA KALLIKREIN” (Activesite Pharmaceuticals, Inc., priority 2006, published 2008).
Square brackets hold non-standard residues; d marks the D form. * marks the point of attachment. CH2Cl = ClC*

B1: plasmin: exogenous plasmin added to plasma, mimicking a fibrinolytic setting (protein, UniProt P00747 20-580; P00747 581-810, looked up)
Plasmin heavy chain A: EPLDDYVNTQGASLFSVTKKQLGAGSIEECAAKCEEDEEFTCRAFQYHSKEQQCVIMAENRKSSIIIRMRDVVLFEKKVYLSECKTGNGKNYRGTMSKTKNGITCQKWSSTSPHRPRFSPATHPSEGLEENYCRNPDNDPQGPWCYTTDPEKRYDYCDILECEEECMHCSGENYDGKISKTMSGLECQAWDSQSPHAHGYIPSKFPNKNLKKNYCRNPDRELRPWCFTTDPNKRWELCDIPRCTTPPPSSGPTYQCLKGTGENYRGNVAVTVSGHTCQHWSAQTPHTHNRTPENFPCKNLDENYCRNPDGKRAPWCHTTNSQVRWEYCKIPSCDSSPVSTEQLAPTAPPELTPVVQDCYHGDGQSYRGTSSTTTTGKKCQSWSSMTPHRHQKTPENYPNAGLTMNYCRNPDADKGPWCFTTDPSVRWEYCNLKKCSGTEASVVAPPPVVLLPDVETPSEEDCMFGNGKGYRGKRATTVTGTPCQDWAAQEPHRHSIFTPETNPRAGLEKNYCRNPDGDVGGPWCYTTNPRKLYDYCDVPQCAAPSFDCGKPQVEPKKCPGR
Plasmin light chain B: VVGGCVAHPHSWPWQVSLRTRFGMHFCGGTLISPEWVLTAAHCLEKSPRPSSYKVILGAHQEVNLEPHVQEIEVSRLFLEPTRKDIALLKLSSPAVITDKVIPACLPSPNYVVADRTECFITGWGETQGTFGAGLLKEAQLPVIENKVCNRYEFLNGRVQSTELCAGHLAGGTDSCQGDSGGPLVCFEKDKYILQGVTSWGLGCARPNKPGVYVRVSRFVTWIEGVMRNN
modifications: Plasmin
notes: exogenous plasmin added to plasma, mimicking a fibrinolytic setting

Molecular target: T1, Human plasma kallikrein (PK) (Homo sapiens, UniProt P03952)
T1 construct: purchased Haemtech Technologies (Essex Junction, Vt.)
T1 sequence (P03952 391-638 limits assumed): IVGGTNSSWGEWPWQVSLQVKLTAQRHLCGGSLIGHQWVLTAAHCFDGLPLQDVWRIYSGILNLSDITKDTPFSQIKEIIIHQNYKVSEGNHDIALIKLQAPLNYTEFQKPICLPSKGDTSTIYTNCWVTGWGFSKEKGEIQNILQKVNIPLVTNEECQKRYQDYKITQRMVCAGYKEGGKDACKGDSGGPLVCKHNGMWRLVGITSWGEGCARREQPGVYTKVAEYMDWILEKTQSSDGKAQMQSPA
T1 sequence (P03952 20-390 partner limits assumed): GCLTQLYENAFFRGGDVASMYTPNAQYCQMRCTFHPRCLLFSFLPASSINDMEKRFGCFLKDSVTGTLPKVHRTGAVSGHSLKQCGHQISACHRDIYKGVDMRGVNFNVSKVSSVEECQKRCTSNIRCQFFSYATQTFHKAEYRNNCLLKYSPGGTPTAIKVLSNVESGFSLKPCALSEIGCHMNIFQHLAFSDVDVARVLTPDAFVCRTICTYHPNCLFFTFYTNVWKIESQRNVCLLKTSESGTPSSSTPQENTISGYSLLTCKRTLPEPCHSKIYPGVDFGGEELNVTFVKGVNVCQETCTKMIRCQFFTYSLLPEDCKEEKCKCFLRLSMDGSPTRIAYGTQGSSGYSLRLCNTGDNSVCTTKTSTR
Assay: Inhibition of human plasma kallikrein amidolytic activity (H-D-Pro-Phe-Arg-pNA cleavage, A405)
Format: biochemical
Conditions: PK Kiapp, apparent inhibition constant; 1 nM PK, pH 7.5
Protocol: Human plasma kallikrein (PK) was obtained from Haemtech Technologies (Essex Junction, Vt.). The enzymatic activity of PK was assayed using the synthetic peptide substrate H-D-Pro-Phe-Arg-pNA (Bachem, Inc., Switzerland) with the cleavage of the substrate by the enzyme resulting in an increase in A405, measured using a Molecular Devices Vmax Kinetic Microplate Reader. The uninhibited (control) activity of PK was determined by adding 190 μl of PK solution (1 nM in 0.05 M HEPES, pH 7.5, 0.01% Triton X-100) to 10 μl of H-D-Pro-Phe-Arg-pNA (2 mM in DMSO) in individual microtiter plate wells, mixed immediately by shaking, and the rate of increase in A405 determined over 120-180 sec. In parallel, compounds of the present invention were mixed in separate wells with the synthetic substrate to attain final concentrations of between 0.01-10 μM in the final 200 μl reaction mixture, and the reaction initiated by the addition of 190 μl of the PK solution.
The highest concentration of either compound tested was 10 μM.
`N=C(N)c1ccc(CNC(=O)c2cn(Cc3ccccc3)c3ccccc23)cc1` [ASP-381, 1-Benzyl-1H-indole-3-carboxylic acid 4-carbamimidoyl-benzylamide] gave a Ki of 240 nM.

Same assay, conditions: Table 4 inhibition constants; read-out: Ki
For `N=C(N)c1ccc(CNC(=O)c2cn(S(=O)(=O)c3ccccc3)c3ccccc23)cc1` (single isomer, unassigned) [compound 2], the Ki was 30 nM.
Molecule `N=C(N)c1ccc(CNC(=O)c2cnn(Cc3ccccc3)c2)cc1` (single isomer, unassigned) [compound 3] has a Ki of 150 nM.
`N=C(N)c1ccc(CNC(=O)c2cn(Cc3ccccc3)c3ccccc23)cc1` [compound 1] showed a Ki of 80 nM.
In the case of `N=C(N)c1ccc(CNC(=O)c2cnn(-c3ccccc3)c2)cc1` [compound 4], the Ki is reported as 1000 nM.

Same assay, conditions: apparent inhibition constant; 1 nM PK, pH 7.5; read-out: PK Kiapp
In the case of `Cc1nc(-c2ccccc2)sc1C(=O)NCc1ccc(C(=N)N)cc1` [ASP-373, 4-Methyl-2-phenyl-thiazole-5-carboxylic acid 4-carbamimidoyl-benzylamide], the Ki is reported as 8870 nM.
For `N=C(N)c1ccc(CNC(=O)c2cn(S(=O)(=O)c3ccccc3)c3ccccc23)cc1` [ASP-383, 1-Benzenesulfonyl-1H-indole-3-carboxylic acid 4-carbamimidoyl-benzylamide], the Ki was 170 nM.
Molecule `N=C(N)c1ccc(CNC(=O)c2cnn(-c3ccccc3)c2)cc1` [ASP-445, 1-Phenyl-1H-pyrazole-4-carboxylic acid 4-carbamimidoyl-benzylamide] has a Ki of 1430 nM.
`Cc1oc(-c2ccccc2)cc1C(=O)NCc1ccc(C(=N)N)cc1` [ASP-466, 2-Methyl-5-phenyl-furan-3-carboxylic acid 4-carbamimidoyl-benzylamide] showed a Ki of 1290 nM.
Molecule `N=C(N)c1ccc(CNC(=O)c2cc3ccccc3[nH]2)cc1` [ASP-484, 1H-Indole-2-carboxylic acid 4-carbamimidoyl-benzylamide] has a Ki of 2520 nM.
`N=C(N)c1ccc(CNC(=O)c2cc3ccccc3o2)cc1` [ASP-485, Benzofuran-2-carboxylic acid 4-carbamimidoyl-benzylamide] showed a Ki of 870 nM.
Work on `N=C(N)c1ccc(CNC(=O)c2cc3ccccc3s2)cc1` [ASP-486, Benzo[b]thiophene-2-carboxylic acid 4-carbamimidoyl-benzylamide] yielded a Ki of 1570 nM.
With `N=C(N)c1ccc(CNC(=O)c2csc3ccccc23)cc1` [ASP-491, Benzo[b]thiophene-3-carboxylic acid 4-carbamimidoyl-benzylamide] the Ki was 2110 nM.
With `N=C(N)c1ccc(CNC(=O)c2c[nH]c3ccccc23)cc1` [ASP-493, 1H-Indole-3-carboxylic acid 4-carbamimidoyl-benzylamide] the Ki was 2450 nM.
For `N=C(N)c1ccc(CNC(=O)c2ccc(-c3ccccc3)s2)cc1` [ASP-523, 5-Phenyl-thiophene-2-carboxylic acid 4-carbamimidoyl-benzylamide], the Ki was 7660 nM.
With `N=C(N)c1ccc(CNC(=O)c2ccc(-c3ccccn3)s2)cc1` [ASP-525, 5-Pyridin-2-yl-thiophene-2-carboxylic acid 4-carbamimidoyl-benzylamide] the Ki was 20600 nM.
For `Cc1c(C(=O)NCc2ccc(C(=N)N)cc2)nnn1Cc1ccc(Br)cc1` [ASP-558, 1-(4-Bromo-benzyl)-5-methyl-1H-1,2,3-triazole-4-carboxylic acid 4-carbamimidoyl-benzylamide], the Ki was 2620 nM.
In the case of `N=C(N)c1ccc(CNC(=O)c2cn(Cc3ccc(F)cc3)nn2)cc1` [ASP-559, 1-(4-Fluoro-benzyl)-1H-1,2,3-triazole-4-carboxylic acid 4-carbamimidoyl-benzylamide], the Ki is reported as 8090 nM.
In the case of `Cc1cc(C(=O)NCc2ccc(C(=N)N)cc2)c(C)n1-c1ccccc1` [ASP-576, 2,5-Dimethyl-1-phenyl-1H-pyrrole-3-carboxylic acid 4-carbamimidoyl-benzylamide], the Ki is reported as 40 nM.
`Cc1nn(Cc2ccccc2)c(C)c1C(=O)NCc1ccc(C(=N)N)cc1` [ASP-577, 1-Benzyl-3,5-dimethyl-1H-pyrazole-4-carboxylic acid 4-carbamimidoyl-benzylamide] showed a Ki of 1130 nM.
Molecule `Cc1nn(Cc2ccccc2Cl)c(C)c1C(=O)NCc1ccc(C(=N)N)cc1` [ASP-578, 1-(2-Chloro-benzyl)-3,5-dimethyl-1H-pyrazole-4-carboxylic acid 4-carbamimidoyl-benzylamide] has a Ki of 1640 nM.
`Cc1nn(Cc2c(Cl)cccc2Cl)c(Cl)c1C(=O)NCc1ccc(C(=N)N)cc1` [ASP-579, 5-Chloro-1-(2,6-dichloro-benzyl)-3-methyl-1H-pyrazole-4-carboxylic acid 4-carbamimidoyl-benzylamide] showed a Ki of 1190 nM.
`Cc1cc(C(=O)NCc2ccc(C(=N)N)cc2)c(C)n1Cc1ccccc1` [ASP-580, 1-Benzyl-2,5-dimethyl-1H-pyrrole-3-carboxylic acid 4-carbamimidoyl-benzylamide] showed a Ki of 30 nM.
For `Cc1cc(C(=O)NCc2ccc(C(=N)N)cc2)c(C)n1CC(F)(F)F` [ASP-581, 2,5-Dimethyl-1-(2,2,2-trifluoro-ethyl)-1H-pyrrole-3-carboxylic acid 4-carbamimidoyl-benzylamide], the Ki was 410 nM.
For `N=C(N)c1ccc(CNC(=O)c2cnn(Cc3ccccc3Cl)c2)cc1` [ASP-582, 1-(2-Chloro-benzyl)-1H-pyrazole-4-carboxylic acid 4-carbamimidoyl-benzylamide], the Ki was 470 nM.
Work on `Cc1nn(Cc2ccc(F)cc2)c(Cl)c1C(=O)NCc1ccc(C(=N)N)cc1` [ASP-583, 5-Chloro-1-(4-fluoro-benzyl)-3-methyl-1H-pyrazole-4-carboxylic acid 4-carbamimidoyl-benzylamide] yielded a Ki of 2380 nM.

Tested on: plasmin-activated coagulation in plasma
Assay: Plasmin-activated coagulation of plasma (plasmin + 6.25% Actin FS), time to coagulation
Parameters: species or system human
Conditions: 100 nM plasmin, 50% plasma, 6.25% Actin FS; control 1.00
Protocol: In the clotting paradigm utilized in Example 3, plasma is mixed 1:1 with commercially formulated Actin FS. Thus, 50% (v/v) Actin FS is the maximum amount of activator that can be added while maintaining the amount of plasma constant at 50% of the incubation mixture. Since the clotting time in normal plasma is dependent on the amount of Actin FS present in the incubation mixture, these conditions would by definition lead to the shortest time to coagulation mediated by the intrinsic pathway in this paradigm. Lowering the amount of contact activator leads to a decrease in the amount of PK activated, thus reducing the amount of thrombin generated and slowing the time to coagulation (data not shown). Therefore, in order to determine whether addition of exogenous plasmin (mimicking a fibrinolytic setting) can shorten time to coagulation, the amount of Actin FS reagent added to the plasma (kept constant at 50% of the final incubation mixture) was lowered so as to attain 6.25% (final v/v).
This provides direct evidence that plasmin can have a thrombogenic effect when added to plasma in the presence of a small amount of contact activator.
The role for PK was established by evaluating deficiencies in PK, as well as by using two specific inhibitors of the enzymes. In order to determine whether blocking PK via a specific monoclonal antibody (MAb) would also be effective in inhibiting coagulation in either of the two paradigms described here, and thus provide additional validation for the invention, MAb 13G11, which has been previously characterized as being specific for PK (Veloso et al, (1987) Blood, 70, 1053-1062), was tested in each of the coagulation paradigms described in Examples 2 and 3. MAb 13G11 (obtained from GeneTex, San Antonio, Tex.) was added at a final concentration of 0.036 mg/ml in the 50% plasma—50% activator mix in each paradigm. This calculates to an approximately 2-fold molar excess over the amount of PK that would be present in the plasma—activator mixture, based on the literature reference of Veloso et al, (1987), Blood, 70, 1053-1062. Control samples were treated with 0.036 mg/ml of an isotype-matched control IgG1 (also obtained from GeneTex). When plasma was activated using 50% Actin FS (FIG. 5), MAb 13G11 prolonged time to coagulation by 100% (45% of the maximal effect obtained with PK-deficient plasma), and, when plasma was activated using 200 nM plasmin+6.25% Actin FS (FIG. 6), prolonged time to coagulation by 32% (40% of the maximal effect obtained with PK-deficient plasma).
B1 gave a relative coagulation time of 0.74.

Same assay, conditions: 200 nM plasmin, 50% plasma, 6.25% Actin FS; control 1.00
Work on B1 yielded a relative coagulation time of 0.65.

Same assay, conditions: 200 nM plasmin, absence of any Actin FS
For B1, the “relative time to coagulation” value was 4.0.

Tested on: LPS or bacterial induced sepsis in animals
Assay: not given
Conditions: in vivo; cited from earlier work
In the case of “H-[dP]-Phe-Arg-CH2Cl [reference compound]”, the “vascular permeability in multiple organs and lesions” value is listed as “reduce”.
